Measurements: patent US6720184B1, “Method of altering sphingolipid metabolism and detecting fumonisin ingestion and contamination” (Emory University, priority 1991, dated 2004)
pIC50: −log10 of the molar value. “And” between values parts separate entries of the source, which are not always exact repeats. Identical values can stand only once.

Columns and labels:
[1] = reference 14; cited from earlier work
serum sphingolipids = assay: long-chain bases liberated from total serum lipids by acid hydrolysis, ponies fed fumonisin; format: in vivo, pony
Excerpt: Feeding protocols—Clinically normal ponies of varying age and sex were conditioned on the control diet for 21 days prior to the trial. Horse 341 was a 6 year old gelding (173-193 Kg), 299 was a 12 year old mare (205-215 Kg), 164 was a 12 year old mare (206-290 Kg) and 166 was a 16 year old mare (143-164 Kg). During the conditioning period and throughout the trial, all ponies received alfalfa hay by free choice. The test groups were fed varying levels of fumonisin (15 to 44 ppm) for varying lengths of time.
Analysis of serum long-chain bases—Blood was drawn approximately twice a week, centrifuged to obtain serum, and aliquots were frozen for analyses of free sphingosine and sphinganine by HPLC as is known in the art as described in (28). To quantitate total sphingolipids in some samples, the extracts were acid hydrolyzed before preparing the samples for HPLC.

[2] = system: de novo sphingolipid biosynthesis; assay: de novo sphingosine biosynthesis from [14C]serine in hepatocytes
Experimental: Hepatocyte culture—Hepatocytes were prepared by a collagenase perfusion method, as known in the art as described in (22), from male Sprague-Dawley rats (125 to 200 g) fed a chow diet (Ralston Purina, St. Louis, Mo.) ad libitum. The hepatocytes were isolated using carefully aseptic procedures and plated in 60 mm tissue culture dishes coated with collagen for short term (<24 h) or with Matrigel for longer term (3 to 4 d) experiments. After plating for 4 h, the medium was changed to 2 ml of DMEM (with 3.7 g/L NaHCO3) containing 10 μg/ml f insulin, 6.1 g/L of penicillin, 10 g/L of streptomycin sulfate, and varying concentrations of fumonisins (added from a 1 mM solution in Delbecco's phosphate buffered saline). The cells were maintained in a tissue culture incubator at 37° C. and an atmosphere of 5% CO2; the medium was changed every 24 h.
Lipid analyses—The de novo biosynthesis of sphingosine was measured, as known in the art as described in (23,24). Briefly, cells that had been exposed to fumonisins for 0 to 4 d were changed to new medium containing 10 μCi of [^14C]serine (25 mCi/mmol) in 2 ml of serine-free DMEM (Gibco) in the presence or absence of fumonisin. After incubation for 2 or 16 h, they were scraped from the dishes, 25 μg of carrier sphingosine and sphinganine were added, and the lipids were extracted and acid hydrolyzed to liberate the free long-chain bases using conditions that give optimal hydrolysis with minimal decomposition of the labile long-chain bases, as known in the art as described in (23-25). The sphinganine and sphingosine were separated by thin-layer chromatography on silica gel H (Brinkman) plates developed with CHCl,:methanol:2 N NH4OH (40:10:1, v/v/v) and the radiolabelling profile (shown in FIG. 2) was determined by radiometric scanning of the plates with a Bioscan System 200 Imaging Scanner. […] The appropriate regions of the chromatoplate were scraped, placed in scintillation vials, and 0.2 ml of water and 4 ml of a detergent based scintillation cocktail were added. After several hours, the samples were counted with the appropriate corrections for quenching.

[3] = system: serine palmitoyltransferase; assay: in vitro assay of serine palmitoyltransferase, rat liver microsomes; format: biochemical
Experimental: In vitro assays of serine palmitoyltransferase and ceramide synthase. A microsomal fraction was isolated from rat liver and assayed for serine palmitoyltransferase, as is known in the art as described in (24,29), and ceramide synthase, as is known in the art as described in (30), in the presence of varying concentrations of fumonisin B1. […] The reaction was initiated by adding palmitoyl-CoA and, after incubation at 37° C. for 15 min, the products were extracted, resolved by TLC, and quantitated as described above. Background counts were subtracted using data from identical assays that omitted palmitoyl-CoA.

[4] = system: serine palmitoyltransferase; assay: serine palmitoyltransferase in disrupted cells after treatment of hepatocytes; format: cell-based, rat; conditions: hepatocytes treated with 2.5 μM
rat hepatocytes = assay: mass measurements of phospholipids, total sphingolipids and free long-chain bases in hepatocytes; format: cell-based; conditions: for Mass Phosphatidylcholine / Mass Phosphatidylethanolamine / Mass Phosphatidylserine / Mass Total sphingolipids: 16 h
Experimental: Mass measurements of the long-chain bases were conducted by HPLC, as is known in the art as previously described in (28), with C20-sphinganine as an internal standard. To quantitate total sphingolipids, the extracts were acid hydrolyzed before preparing the samples for HPLC and corrected, if necessary, for any losses during hydrolysis or extraction by spiking replicate samples with a known amount of ceramide or sphingomyelin.

[5] = reference 12; cited from earlier work
[6] = Pony 208, fumonisin feed (level not given), day 2
[7] = Pony 208, fumonisin feed (level not given), day 6
[8] = Pony 208, fumonisin feed (level not given), day 10
[9] = Pony 208, fumonisin feed (level not given), day 13

CCCC[C@@H](C)[C@@H](OC(=O)C[C@@H](CC(=O)O)C(=O)O)[C@H](C[C@@H](C)C[C@H](O)CCCC[C@@H](O)C[C@H](O)[C@H](C)N)OC(=O)C[C@@H](CC(=O)O)C(=O)O [fumonisin B1]
tumor promotion [1]: promotion of liver tumors
Sphinganine Total (acid hydrolysis of serum lipids) (serum sphingolipids; Pony 164, feed 44 ppm, day 2): 169 ± 30 pmol/mL
Sphinganine Total (−free) (serum sphingolipids; Pony 164, feed 44 ppm, day 2): 99 pmol/mL
Sphingosine Total (acid hydrolysis of serum lipids) (serum sphingolipids; Pony 164, feed 44 ppm, day 2): 621 ± 99 pmol/mL
Sphingosine Total (−free) (serum sphingolipids; Pony 164, feed 44 ppm, day 2): 504 pmol/mL
Sphinganine Total (acid hydrolysis of serum lipids) (serum sphingolipids; Pony 164, feed 44 ppm, day 7): 156 pmol/mL
Sphinganine Total (−free) (serum sphingolipids; Pony 164, feed 44 ppm, day 7): 0 pmol/mL
Sphingosine Total (acid hydrolysis of serum lipids) (serum sphingolipids; Pony 164, feed 44 ppm, day 7): 254 ± 32 pmol/mL
Sphingosine Total (−free) (serum sphingolipids; Pony 164, feed 44 ppm, day 7): 102 pmol/mL
Sphinganine Total (acid hydrolysis of serum lipids) (serum sphingolipids; Pony 164, feed 44 ppm, day 10): 786 ± 234 pmol/mL
Sphinganine Total (−free) (serum sphingolipids; Pony 164, feed 44 ppm, day 10): 503 pmol/mL
Sphingosine Total (acid hydrolysis of serum lipids) (serum sphingolipids; Pony 164, feed 44 ppm, day 10): 2960 ± 585 pmol/mL
Sphingosine Total (−free) (serum sphingolipids; Pony 164, feed 44 ppm, day 10): 2740 pmol/mL
Sphinganine Total (acid hydrolysis of serum lipids) (serum sphingolipids; Pony 166, feed 44 ppm, day 2): 131 ± 40 pmol/mL
Sphinganine Total (−free) (serum sphingolipids; Pony 166, feed 44 ppm, day 2): 94 pmol/mL
Sphingosine Total (acid hydrolysis of serum lipids) (serum sphingolipids; Pony 166, feed 44 ppm, day 2): 1020 ± 313 pmol/mL
Sphingosine Total (−free) (serum sphingolipids; Pony 166, feed 44 ppm, day 2): 974 pmol/mL
Sphinganine Total (acid hydrolysis of serum lipids) (serum sphingolipids; Pony 166, feed 44 ppm, day 7): 206 ± 18 pmol/mL
Sphinganine Total (−free) (serum sphingolipids; Pony 166, feed 44 ppm, day 7): 144 pmol/mL
Sphingosine Total (acid hydrolysis of serum lipids) (serum sphingolipids; Pony 166, feed 44 ppm, day 7): 950 ± 154 pmol/mL
Sphingosine Total (−free) (serum sphingolipids; Pony 166, feed 44 ppm, day 7): 985 pmol/mL
Sphinganine Total (acid hydrolysis of serum lipids) (serum sphingolipids; Pony 166, feed 44 ppm, day 10): 212 ± 28 pmol/mL
Sphinganine Total (−free) (serum sphingolipids; Pony 166, feed 44 ppm, day 10): 34 pmol/mL
Sphingosine Total (acid hydrolysis of serum lipids) (serum sphingolipids; Pony 166, feed 44 ppm, day 10): 634 ± 192 pmol/mL
Sphingosine Total (−free) (serum sphingolipids; Pony 166, feed 44 ppm, day 10): 540 pmol/mL
Sphinganine Total (acid hydrolysis of serum lipids) (serum sphingolipids; Pony 166, feed 44 ppm, day 13): 823 ± 54 pmol/mL
Sphinganine Total (−free) (serum sphingolipids; Pony 166, feed 44 ppm, day 13): 650 pmol/mL
Sphingosine Total (acid hydrolysis of serum lipids) (serum sphingolipids; Pony 166, feed 44 ppm, day 13): 1740 ± 150 pmol/mL
Sphingosine Total (−free) (serum sphingolipids; Pony 166, feed 44 ppm, day 13): 1640 pmol/mL
Sphinganine Total (acid hydrolysis of serum lipids) (serum sphingolipids; [6]): 387 ± 26 pmol/mL
Sphinganine Total (−free) (serum sphingolipids; [6]): 107 pmol/mL
Sphingosine Total (acid hydrolysis of serum lipids) (serum sphingolipids; [6]): 3490 ± 358 pmol/mL
Sphingosine Total (−free) (serum sphingolipids; [6]): 3190 pmol/mL
Sphinganine Total (acid hydrolysis of serum lipids) (serum sphingolipids; [7]): 718 ± 75 pmol/mL
Sphinganine Total (−free) (serum sphingolipids; [7]): 60 pmol/mL
Sphingosine Total (acid hydrolysis of serum lipids) (serum sphingolipids; [7]): 2390 ± 388 pmol/mL
Sphingosine Total (−free) (serum sphingolipids; [7]): 2030 pmol/mL
Sphinganine Total (acid hydrolysis of serum lipids) (serum sphingolipids; [8]): 2040 ± 70 pmol/mL
Sphinganine Total (−free) (serum sphingolipids; [8]): 200 pmol/mL
Sphingosine Total (acid hydrolysis of serum lipids) (serum sphingolipids; [8]): 4450 ± 10 pmol/mL
Sphingosine Total (−free) (serum sphingolipids; [8]): 3460 pmol/mL
Sphinganine Total (acid hydrolysis of serum lipids) (serum sphingolipids; [9]): 9990 ± 379 pmol/mL
Sphinganine Total (−free) (serum sphingolipids; [9]): 9604 pmol/mL
Sphingosine Total (acid hydrolysis of serum lipids) (serum sphingolipids; [9]): 15970 ± 1576 pmol/mL
Sphingosine Total (−free) (serum sphingolipids; [9]): 15040 pmol/mL
inhibition of [14C]sphingosine formation by hepatocytes ([2]; 1 μM): almost complete inhibition
de novo sphingolipid biosynthesis ([2]; 10 μM): completely blocked
amount of radiolabel in [14C]sphinganine ([2]; hepatocytes treated (FIG. 4A)): increased
pIC50 ([2]; read-out: IC50 for inhibition of [14C]serine incorporation into [14C]sphingosine, rat hepatocytes, 2 h incubation (FIG. 3B)): ~7.00 and 7.00
effect on activity of serine palmitoyltransferase in vitro ([3]; 25 μM): did not reduce
activity of serine palmitoyltransferase in vitro ([3]; in the presence of 25 μM): 88±3 pmol 3-ketosphinganine formed/min/mg of microsomal protein
inhibition of serine palmitoyltransferase in disrupted cells [4]: no inhibition
serine palmitoyltransferase activity in disrupted cells [4]: 7.7±0.2 pmol/min per mg of cellular protein
Mass Phosphatidylcholine (rat hepatocytes; 1 μM): 105 ± 1.8 nmol/mg protein
Mass Phosphatidylethanolamine (rat hepatocytes; 1 μM): 44.9 ± 1.4 nmol/mg protein
Mass Phosphatidylserine (rat hepatocytes; 1 μM): 15.5 ± 2.6 nmol/mg protein
Mass Total sphingolipids (rat hepatocytes; 1 μM): 6.7 ± 0.3 nmol/mg protein
fold increase of sphinganine versus control (rat hepatocytes; 1 μM, 4 d): 110 fold
free sphingosine (rat hepatocytes; 1 μM, 4 d): 52±1 pmol/dish
mass of free sphinganine (rat hepatocytes; 1 μM, 4 d): 1499±18 pmol/dish
level of total sphingolipids (rat hepatocytes; 1 μM, 4 d, cells on Matrigel): 2.1±0.1 nmol/dish
reduction of level of total sphingolipids (rat hepatocytes; 1 μM, 4 d, cells on Matrigel): about half
Mass Phosphatidylcholine (rat hepatocytes; 10 μM): 112 ± 3.4 nmol/mg protein
Mass Phosphatidylethanolamine (rat hepatocytes; 10 μM): 44.4 ± 0.9 nmol/mg protein
Mass Phosphatidylserine (rat hepatocytes; 10 μM): 12.3 ± 1.9 nmol/mg protein
Mass Total sphingolipids (rat hepatocytes; 10 μM): 6.5 ± 0.7 nmol/mg protein
amount of free sphingosine (rat hepatocytes; within the first 2 h (FIG. 4B)): only a small reduction
disease caused [5]: equine leucoencephalomalacia
